Where two headings read alike, the source gives them in different places.
Key:
NDM-1 = NDM-1 (Klebsiella pneumoniae, UniProt C7C422); test: biochemical; type: biochemical; details: read-out: NDM-1 IC50
IMP-1 = IMP-1 (Serratia marcescens, UniProt P52699); test: biochemical; type: biochemical; details: read-out: IMP-1 IC50
VIM-1 = VIM-1 (Pseudomonas aeruginosa (strain ATCC 15692 / DSM 22644 / CIP 104116 / JCM 14847 / LMG 12228 / 1C / PRS 101 / PAO1), UniProt A0A0F7KYQ8); test: Enzyme activity: determination of IC50, fluorescence assay with CCF2-FA substrate (VIM-1); type: biochemical
[1] = test system: Escherichia coli expressing NDM-1 (CLB30016); test: Antibiotic potentiation activity: synergistic concentration (MITC95) with imipenem, OD600 growth; type: cell-based
Procedure, shortened: (§1)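 Steps: colonies grown overnight at 35 °C; resuspended in saline to OD600 0.11–0.15 by strain; diluted 1:100 into 1.1× CAMHB; imipenem then compound added (antibiotic 4 μg/ml in assay); incubated 35 °C for 22–24 h; absorbance measured.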

[2] = test system: Klebsiella pneumoniae expressing VIM-1 (IHMA599644); test: as above; type: cell-based
Procedure, shortened: as §1

[3] = test system: Serratia marcescens expressing IMP-1 (CL5741); test: as above; type: cell-based
Procedure, shortened: as §1

[4] = fluorescence assay with CCF2-FA substrate
[5] = fluorescence assay with CCF2-FA substrate, read-out: VIM-1 IC50
[6] = CLB30016 (NDM-1), 95% inhibition of bacterial growth
[7] = IHMA599644 (VIM-1), 95% inhibition of bacterial growth
[8] = CL5741 (IMP-1), 95% inhibition of bacterial growth
[9] = NDM-1 enzyme, CCF2-FA substrate
[10] = IMP-1 enzyme, CCF2-FA substrate
[11] = VIM-1 enzyme, CCF2-FA substrate, read-out: VIM-1 IC50
[12] = (CLB30016, NDM-1), 95% growth inhibition
[13] = Klebsiella pneumoniae IHMA599644 (VIM-1), 95% growth inhibition
[14] = Serratia marcescens CL5741 (IMP-1), 95% growth inhibition
[15] = NDM-1 enzyme, CCF2-FA fluorescence assay
[16] = IMP-1 enzyme, CCF2-FA fluorescence assay
[17] = VIM-1 enzyme, CCF2-FA fluorescence assay, read-out: VIM-1 IC50
[18] = Escherichia coli expressing NDM-1 (CLB30016), 95% growth inhibition
[19] = Klebsiella pneumoniae expressing VIM-1 (IHMA599644), 95% growth inhibition
[20] = Serratia marcescens expressing IMP-1 (CL5741), 95% growth inhibition
[21] = concentration giving 95% inhibition of bacterial growth

Chain of NDM-1 (C7C422 whole entry, looked up, species assumed): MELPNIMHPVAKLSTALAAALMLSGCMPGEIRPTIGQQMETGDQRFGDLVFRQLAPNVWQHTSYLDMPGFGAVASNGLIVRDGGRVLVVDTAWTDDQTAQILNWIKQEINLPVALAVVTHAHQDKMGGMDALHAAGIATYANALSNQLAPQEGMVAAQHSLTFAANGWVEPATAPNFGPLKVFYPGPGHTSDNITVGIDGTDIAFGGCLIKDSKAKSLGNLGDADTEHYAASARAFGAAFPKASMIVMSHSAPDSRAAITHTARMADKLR
Chain of IMP-1 (P52699 whole entry, looked up): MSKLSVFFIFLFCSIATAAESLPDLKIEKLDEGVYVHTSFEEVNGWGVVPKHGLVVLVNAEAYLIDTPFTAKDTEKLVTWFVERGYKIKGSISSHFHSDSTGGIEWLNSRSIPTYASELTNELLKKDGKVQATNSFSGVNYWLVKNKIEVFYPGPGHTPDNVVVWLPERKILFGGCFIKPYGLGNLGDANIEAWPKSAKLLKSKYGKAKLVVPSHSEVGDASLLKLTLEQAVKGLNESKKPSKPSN

Row | Structure (SMILES) | IC50 (NDM-1; [9]) [nM] | IC50 (IMP-1; [10]) [nM] | IC50 (VIM-1; [11]) [nM] | Escherichia coli MITC95 [1, 12] [µM] | Klebsiella pneumoniae MITC95 [2, 13] [µM] | Serratia marcescens MITC95 [3, 14] [µM] | IC50 (NDM-1; [15]) [nM] | IC50 (IMP-1; [16]) [nM] | IC50 (VIM-1; [17]) [nM] | Escherichia coli MITC95 [1, 18] [µM] | Klebsiella pneumoniae MITC95 [2, 19] [µM] | Serratia marcescens MITC95 [3, 20] [µM] | further results
1 | NS(=O)(=O)c1c(C(F)(F)F)ccc([C@H]2CC[C@@H](N)CC2)c1-c1nnn[nH]1 [Example 819, 3-((1s,4s)-4-aminocyclohexyl)-2-(1H-tetrazol-5-yl)-6-(trifluoromethyl)benzenesulfonamide] |  |  |  |  |  |  |  |  |  |  |  |  | IC50 (NDM-1; [4]): 14.3 nM; IC50 (IMP-1; [4]): 97.1 nM; IC50 (VIM-1; [5]): 27.4 nM; Escherichia coli MITC95 [1, 6]: 0.8464 µM; Klebsiella pneumoniae MITC95 [2, 7]: 3.385 µM; Serratia marcescens MITC95 [3, 8]: 1.823 µM
2 | NS(=O)(=O)c1c(C(F)(F)F)ccc(-c2cccc(N3CCNCC3)c2)c1-c1nnn[nH]1 [Example 723, 3′-piperazin-1-yl-2-(1H-tetrazol-5-yl)-4-(trifluoromethyl)biphenyl-3-sulfonamide] | 7.78 | 17.2 | 1.26 | 6.25 | 12.5 | 25 |  |  |  |  |  |  | 
3 | NC1CCC(N[C@H]2CC[C@H](c3ccc(C(F)(F)F)c(S(N)(=O)=O)c3-c3nnn[nH]3)CC2)CC1 (stereo partly drawn) [Example 690, 3-{4-[(4-aminocyclohexyl)amino]cyclohexyl}-2-(1H-tetrazol-5-yl)-6-(trifluoromethyl)benzene sulfonamide] | 12.6 | 75.9 |  | 1.563 | 25 | 3.125 |  |  |  |  |  |  | IC50 (VIM-1; VIM-1 IC50, VIM-1 enzyme, CCF2-FA substrate): 5.26 nM
4 | CS(=O)(=O)Nc1ccc(-c2ccc(Br)c(S(N)(=O)=O)c2-c2nn[nH]n2)cc1 [Example 270, 4-bromo-4′-(methylsulfonamido)-2-(2H-tetrazol-5-yl)-[1,1′-biphenyl]-3-sulfonamide] |  |  |  |  |  |  | 2.56 | 4.86 | 1.68 | 1.563 | 6.25 | 0.3906 | 
5 | NS(=O)(=O)c1cccc(-c2ccc(C3(O)CCNC3)cc2)c1-c1nn[nH]n1 (stereo not drawn) [Example 284, 4′-(3-hydroxypyrrolidin-3-yl)-2-(2H-tetrazol-5-yl)-[1,1′-biphenyl]-3-sulfonamide] |  |  |  |  |  |  | 12.7 | 102 | 55.5 | 0.7813 | 4.688 | 1.563 | 
6 | NC(=O)c1nccc2cc(-c3cccc(S(N)(=O)=O)c3-c3nn[nH]n3)ccc12 [Example 281, 6-(3-sulfamoyl-2-(2H-tetrazol-5-yl)phenyl)isoquinoline-1-carboxamide] |  |  |  |  |  |  | 0.342 | 42.9 | 12.2 | 0.7813 | 12.5 | 3.125 | 
7 | N[C@]1(c2ccc(-c3ccc(C(F)(F)F)c(S(N)(=O)=O)c3-c3nn[nH]n3)cc2)CCNC1 [Example 547, 3-[4-[(3S)-3-aminopyrrolidin-3-yl]phenyl]-2-(2H-tetrazol-5-yl)-6-(trifluoromethyl)benzenesulfonamide] | 9.32 | 9.14 | 1.18 | 6.25 | 6.25 | 3.125 |  |  |  |  |  |  | 
8 | NS(=O)(=O)c1c(C(F)(F)F)ccc(-c2ccc(C3CCN(C4CNC4)CC3)cc2)c1-c1nnn[nH]1 [Example 796, 4′-(1-azetidin-3-ylpiperidin-4-yl)-2-(1H-tetrazol-5-yl)-4-(trifluoromethyl)biphenyl-3-sulfonamide] |  |  |  |  |  |  |  |  |  |  |  |  | IC50 (NDM-1; [4]): 2.06 nM; IC50 (IMP-1; [4]): 0.345 nM; IC50 (VIM-1; VIM-1 IC50, fluorescence assay with CCF2-FA substrate): 18 nM; Escherichia coli MITC95 [1, 6]: 6.25 µM; Klebsiella pneumoniae MITC95 [2, 7]: >200 µM; Serratia marcescens MITC95 [3, 8]: 6.25 µM
9 | CN1CCN(c2ncc(-c3cccc(S(N)(=O)=O)c3-c3nnn[nH]3)cn2)CC1 [Example 128, 3-(2-(4-methylpiperazin-1-yl)pyrimidin-5-yl)-2-(1H-tetrazol-5-yl)benzenesulfonamide] |  |  |  |  |  |  |  |  |  |  |  |  | IC50 (NDM-1; [4]): 7.95 nM; IC50 (IMP-1; [4]): 453 nM; IC50 (VIM-1; [5]): 1140 nM; Escherichia coli expressing NDM-1 (CLB 30016) MITC95 [1, 21]: 1.563 µM; Klebsiella pneumoniae expressing VIM-1 (IHMA 599644) MITC95 [2, 21]: >200 µM; Serratia marcescens expressing IMP-1 (CL5741) MITC95 [3, 21]: 9.375 µM
10 | CN(C)CCCN(C)Cc1ccc(-c2cccc(S(N)(=O)=O)c2-c2nnn[nH]2)cc1 [Example 368, 4′-({[3-(dimethylamino)propyl](methyl)amino}methyl)-2-(1H-tetrazol-5-yl)biphenyl-3-sulfonamide] |  |  |  |  |  |  | 23.4 | 417 | 1680 | 1.563 | >200 | 9.375 | 
11 | NC(=O)C1CN(Cc2ccc(-c3cccc(S(N)(=O)=O)c3-c3nnn[nH]3)cc2)C1 [Example 362, 1-{[3′-sulfamoyl-2′-(1H-tetrazol-5-yl)biphenyl-4-yl]methyl}azetidine-3-carboxamide] |  |  |  |  |  |  | 11.3 | 116 |  | 0.7813 | 75 | 3.125 | IC50 (VIM-1; VIM-1 IC50, VIM-1 enzyme, CCF2-FA fluorescence assay): 494 nM
12 | NCc1ccc(-c2ccc(CC3CCNCC3)c(S(N)(=O)=O)c2-c2nn[nH]n2)cc1 [Example 593, 4′-(aminomethyl)-4-(piperidin-4-ylmethyl)-2-(2H-tetrazol-5-yl)biphenyl-3-sulfonamide] | 38.2 | 273 | 31.6 | 1.563 | 3.125 | 6.25 |  |  |  |  |  |  | 
13 | NS(=O)(=O)c1c(C(F)(F)F)ccc(-c2cccc(N3CCC(O)CC3)c2)c1-c1nnn[nH]1 [Example 741, 3′-(4-hydroxypiperidin-1-yl)-2-(1H-tetrazol-5-yl)-4-(trifluoromethyl)biphenyl-3-sulfonamide] | 4.65 | 6.12 | 2.74 | 25 | >200 | 25 |  |  |  |  |  |  | 
14 | Nc1nc2c(-c3ccc(CCC(=O)O)c(S(N)(=O)=O)c3-c3nn[nH]n3)cccc2s1 [Example 538, 3-(4-(2-Aminobenzo[d]thiazol-4-yl)-2-sulfamoyl-3-(2H-tetrazol-5-yl)phenyl)propanoic acid] | 1.4 | 53.8 | 40.3 | 6.25 | 100 | 50 |  |  |  |  |  |  | 
15 | NS(=O)(=O)c1c(C(F)(F)F)ccc(-c2cnc3cc[nH]c3c2)c1-c1nnn[nH]1 [Example 474, 3-(1H-pyrrolo[3,2-b]pyridin-6-yl)-2-(1H-tetrazol-5-yl)-6-(trifluoromethyl)benzenesulfonamide] |  |  |  |  |  |  | 0.523 | 3.91 | 0.549 | 0.09375 | 1.531 | 0.4453 | 
16 | Nc1ccc2cc(-c3ccc(C(F)(F)F)c(S(N)(=O)=O)c3-c3nnn[nH]3)ccc2n1 [Example 745, 3-(2-aminoquinolin-6-yl)-2-(1H-tetrazol-5-yl)-6-(trifluoromethyl)benzenesulfon-amide] |  |  |  |  |  |  |  |  |  |  |  |  | IC50 (NDM-1; [4]): 1.05 nM; IC50 (IMP-1; [4]): 1.5 nM; IC50 (VIM-1; [5]): 0.175 nM; Escherichia coli MITC95 [1, 6]: 0.7813 µM; Klebsiella pneumoniae MITC95 [2, 7]: 3.125 µM; Serratia marcescens MITC95 [3, 8]: 3.125 µM
17 | NC1CCN(c2ccc(C(F)(F)F)c(S(N)(=O)=O)c2-c2nnn[nH]2)CC1 [Example 778, 3-(4-amino-1-piperidyl)-2-(1H-tetrazol-5-yl)-6-(trifluoromethyl) benzenesulfonamide] |  |  |  |  |  |  |  |  |  |  |  |  | IC50 (NDM-1; [4]): 147 nM; IC50 (IMP-1; [4]): 160 nM; IC50 (VIM-1; [5]): 0.688 nM; Escherichia coli MITC95 [1, 6]: 3.125 µM; Klebsiella pneumoniae MITC95 [2, 7]: 1.172 µM; Serratia marcescens MITC95 [3, 8]: 1.563 µM
18 | Nc1ccc(-c2ccc(CC[C@H]3CC[C@H](N)CC3)c(S(N)(=O)=O)c2-c2nnn[nH]2)cn1 [Example 577, 6-(2-((1r,4s)-4-aminocyclohexyl)ethyl)-3-(6-aminopyridin-3-yl)-2-(1H-tetrazol-5-yl)benzenesulfonamide] | 2.47 | 29.6 | 10.4 | 0.7813 | 12.5 | 3.125 |  |  |  |  |  |  | 
19 | N=C(N)c1nc2c(-c3ccc(C(F)(F)F)c(S(N)(=O)=O)c3-c3nnn[nH]3)cccc2s1 [Example 482, 4-(3-Sulfamoyl-2-(1H-tetrazol-5-yl)-4-(trifluoromethyl)phenyl)benzo[d]thiazole-2-carboximidamide] |  |  |  |  |  |  | 0.889 | 7.24 | 0.194 | 1.563 | 3.125 | 3.125 | 

From US9708336B2, “Metallo-beta-lactamase inhibitors” (priority 2014, dated 2017)
